Columns and labels:
Assay in all cases: Cryopreservation success rate after dormancy induction in sugar-supplemented medium
L. minor = assay type: in vivo, Lemna minor
Protocol: (§1) Lemna minor duckweed plants were cultured on Schenk and Hildebrandt media with 20 mg/ml sucrose at an aerial temperature of between 21° C. and 30° C. and light levels ranging from […] for 1 day up to 1 year. Three frond colonies (each frond colony comprised one or more daughter fronds attached to the mother frond) were aseptically transferred into a 2.0-mL cryovial containing a 900 μL solution of Schenk and Hildebrandt media, supplemented with 15 mg/ml of each D-trehalose dihydrate, sucrose, D-sorbitol, D-raffinose pentahydrate, D-glucose, and D-mannitol for the dormancy-induction step. The frond colonies were incubated in this sugar solution for 21-30 days. Each 24-hour photoperiod was comprised of fluctuations in temperature and light levels. Specifically, the daytime hours consisted of culturing the duckweed frond colony at an aerial temperature of 10° C. with a light level of about 25 μM·M^−2·sec^−1 to about 50 μM·M^−2·sec^−1 for a duration of 3 hours, followed by an aerial temperature of 15° C. at a light level of about 25 μM·M^−2·sec^−1 to about 75 μM·M^−2·sec^−1 for a duration of 6 hours, and an aerial temperature of 10° C. with a light level of about 25 μM^−2·sec^−1 to about 50 μM·M^−2·sec^−1 for a duration of 3 hours. During the nighttime hours of the 24-hour photoperiod, the duckweed frond colonies were cultured at an aerial temperature of 4° C. in the absence of light for a duration of 12 hours.
(§2) The duckweed frond colonies were dehydrated in a laminar flow hood in 900 μL of a cryoprotective solution, comprising 1.92 M DMSO, […], 3.26 M glycerol, and 0.4 M sucrose at pH 5.8. The cryovials were incubated in this solution at 4° C. for 30 minutes to 2 hours in the absence of light. Following the incubation, the cryoprotective solution was removed and replaced with 900 μL of fresh cryoprotective solution.
(§3) The duckweed frond colonies were frozen in a slow rate freezer according to the following freezing protocol. The cryovials containing the duckweed frond colonies were held at 4° C. and the temperature was lowered to −4° C. at 1° C. per minute, to −40° C. at 25° C. per minute, and then raised to −12° C. at 10° C. per minute. The temperature was again lowered to −40° C. at 1° C. per minute, to −90° C. at 10° C. per minute, and then lowered to −150° C. at 10° C. per minute. Once frozen, the vials containing the frond colonies were transferred to the vapor phase of liquid nitrogen for storage.
(§4) After up to 17 months in storage, the frozen duckweed frond colonies were thawed and recovered as follows. The vials containing the frozen duckweed frond colonies were transferred from the liquid nitrogen storage tank to a laminar flow hood and were thawed at room temperature for approximately ten minutes. The cryoprotective solution was removed and replaced with 900 μL of Schenk and Hildebrandt medium, supplemented with 1.2 M sucrose, followed by a ten minute incubation at room temperature. The 1.2 M sucrose was subsequently diluted by a series of five dilutions whereby 450 μL of the 1.2 M sucrose solution was removed and replaced with 450 μL of Schenk and Hildebrandt medium supplemented with 20 mg/ml sucrose. Following the serial dilutions, the frond colonies were transferred to a petri dish with Schenk and Hildebrandt medium, supplemented with 10 mg/ml sucrose and 1% (weight/volume) agar. The duckweed frond colonies were cultured at an aerial temperature of between 21° C. and 30° C. with light levels ranging from about 20 μM·M^−2·sec^−1 to about 100 μM·M^−2·sec^−1 for 7-14 days prior to calculating the success rate of the cryopreservation procedure.
(§5) The cryopreservation success rate was calculated by the total number of visible daughter fronds (or daughter fronds with viable tissue) to survive the freezing process and successfully reproduce new daughter fronds as a percentage of the total number of visible daughter fronds that were frozen. […]

BAP01-B2-230 line = assay type: in vivo, Lemna minor
Protocol: as §1, §2, §3, §4, §5

IFN61-B2-101 line = assay type: in vivo, Lemna minor
Protocol: as §1, with “supplemented with 15 mg/ml of each D-trehalose dihydrate, sucrose, D-sorbitol, D-raffinose pentahydrate, D-glucose, and D-mannitol for the dormancy-induction” left out
as §2, §3, §4
as §5, with “frozen. Viability of tissue or of daughter fronds was assessed by the presence of green tissue and the ability of these fronds or frond tissues to reproduce and generate new daughter fronds.” for “frozen.”

L. yungensis = assay type: in vivo, Lemna yungensis; conditions: single sugars 90 mg/ml unless the label says 20 mg/ml, six sugar combo 15 mg/ml each
[1] = sugars at two concentrations: 90 mg/ml (1X) and 270 mg/ml (3X), listed as Sucrose 1X
[2] = sugars at two concentrations: 90 mg/ml (1X) and 270 mg/ml (3X), listed as Sucrose 3X
[3] = various concentrations of six sugar combination: total sugar 90 (1X), 216 (2.4X), 342 mg/ml (3.8X), or 20 mg/ml sucrose

Compound: OC[C@H]1O[C@@](CO)(O[C@H]2O[C@H](CO)[C@@H](O)[C@H](O)[C@H]2O)[C@@H](O)[C@@H]1O [Sucrose, sucrose]
- Cryopreservation success rate (L. minor; dormancy induction 21-Day, fluctuating temperature and light): 93.75% (30/32)
- Cryopreservation success rate (L. minor; first set of experiments, single sugars 90 mg/ml unless the label says 20 mg/ml, six sugar combo 15 mg/ml each): 36.8% (7/19)
- Cryopreservation success rate (L. minor; second set of experiments, single sugars 90 mg/ml unless the label says 20 mg/ml, six sugar combo 15 mg/ml each): 91.7% (11/12)
- Cryopreservation success, in words (L. minor; summary of Tables 6 and 7): lower cryopreservation success rates
- Cryopreservation success rate (BAP01-B2-230 line; [1]): 100% (16/16)
- Cryopreservation success rate (BAP01-B2-230 line; [2]): 0% (0/12)
- Cryopreservation success rate (BAP01-B2-230 line; [3]): 60.9% (14/23)
- Cryopreservation success rate (IFN61-B2-101 line; [1]): 89.5%
- Cryopreservation success rate (IFN61-B2-101 line; [2]): 0%
- Cryopreservation success rate (IFN61-B2-101 line; [3]): 100%
- Cryopreservation success rate (L. yungensis; first set of experiments): 0%
- Cryopreservation success rate (L. yungensis; second set of experiments): 0%

From patent US20120190004A1, “METHODS AND COMPOSITIONS FOR THE CRYOPRESERVATION OF DUCKWEED” (Biolex Therapeutics, Inc., priority 2009, published 2012)
